{"source": "patent US20220110949A1", "about": "“A 19-NOR C3,3-DISUBSTITUTED C21-N-PYRAZOLYL STEROID AND METHODS OF USE THEREOF” (Sage Therapeutics, Inc., priority 2017, published 2022)", "key": {"[1]": {"tested_on": "healthy adults, 5-hour phase advance model of insomnia", "test": "Double-blind, placebo-controlled 3-way crossover study; polysomnography (PSG) and subjective sleep measures in a 5-hour phase advance model of insomnia", "assay_type": "in vivo, human", "parameters": "LPS decrease from baseline: dose or concentration left out as unconfirmed", "conditions": "for LPS (min), Median / NAW, Median / SE (%) (sleep efficiency), Median / TST (min), Median / WASO (min), Median / mDURAW (min), Median: PSG; for decrease in median duration of awakenings from baseline: baseline 9.364, awakenings in minutes; for TST median change (increase) from baseline: baseline median 317.00 minutes; for Sleep efficiency (SE) increase from baseline (median): median at baseline 66.042%; for WASO median change from baseline: median at baseline 134.00 minutes; for Subjective Sleep Quality (sSQ) Median (min, max): scale of 1 (poor) to 10 (excellent)", "text": "Example 1. A Randomized, Double-Blind, Multiple Dose, 3-Way Crossover, Exploratory Study to Assess the Pharmacodynamic Effects of Compound 1 Capsules in Healthy Adults Using a 5-Hour Phase Advance Model of Insomnia\nSleep efficiency, defined as the percentage of time in bed spent asleep, as determined by polysomnography (PSG).\nThis is a double-blind, placebo-controlled, 3-way crossover study (Treatment Periods 1, 2, and 3), followed by an open-label administration of Compound 1 for pharmacokinetic purposes (Treatment Period 4). Subjects are expected to participate in Treatment Periods 1, 2 and 3. These subjects may continue into Treatment Period 4. If necessary, de novo subjects may also be included in Treatment Period 4 (see FIG. 2).\nSubjects who meet the sleep diary continuation criteria will return for Visit 2 (Day −7) for a one-night PSG qualification visit. The PSG qualification visit (Visit 2) will begin on Study Day −7 and will continue to Study Day −6. The CRC will determine the median habitual bedtime from their sleep diary. Subjects should arrive at the clinic about 7 hours prior to their habitual bedtime for the one-night PSG qualification visit. Subjects will receive a standard meal and be prepared for overnight PSG recording. Lights out and PSG recording will begin five hours (±30 minutes) earlier than their mean habitual bedtime. Subjects will be required to remain in bed for eight hours, after which time the PSG recording will end, lights will turn on, and subjects will be awakened if asleep. Subjects will complete a Post Sleep Questionnaire about their subjective sleep thirty minutes after the end of the recording. Subjects will be discharged after all morning assessments have been completed at the discretion of the investigator. Subjects will have the option to remain in the clinic (e.g., to sleep at the clinic) until 9 AM.\nTreatment Period 1 (Visit 3) begins on Study Day 1 and continues till Study Day 2. Subjects should arrive at the clinic approximately 7 hours prior to their habitual bedtime. Eligibility criteria will be confirmed and subjects will be randomized (1:1:1:1:1:1) to one of six possible treatment sequences (see FIG. 1). Predose assessments will be conducted. Subjects will receive a standard meal and be prepared for overnight PSG recording. Thirty minutes (±15 minutes) prior to lights out, blinded study drug (30 mg Compound 1, 45 mg Compound 1, or placebo) will be administered with food. Lights out and the PSG recording will begin five hours (±30 minutes) prior to their habitual bedtime. Subjects will be required to remain in bed for eight hours, after which time the lights will turn on, and subjects will be awakened if asleep. The PSG recording will end after 5 minutes (±1 minute) of quiet wakefulness is recorded. Subjects should complete a Post Sleep Questionnaire 30 minutes after the end of the recording. Post-PSG safety assessments will be conducted per the Schedule of Assessments. […] Subjects will have the option to remain in the clinic (e.g., to sleep at the clinic) until 9:00 AM.\nTreatment Period 2 (Visit 4, Study Days 8 to 9) and Treatment Period 3 (Visit 5, Study Days 15 to 16) will follow similar procedures. Subjects will resume normal sleep patterns and maintain a sleep diary during the washout periods between treatments.\nFor Treatment Periods 1, 2, and 3, each subject will receive a single dose of study drug (30 mg Compound 1, 45 mg Compound 1, or placebo) on 3 separate visits; each subject will receive each dose level or placebo once. Study subjects who participate in Treatment Period 4 will receive one additional single dose of Compound 1 (30 mg) during one separate study visit.\nThe Efficacy Set will include all subjects in the Safety Set who have post-dose PSG data. Sleep efficiency will be analyzed using a mixed effects model for repeated measures (MMRM); the model will include treatment, treatment sequence, and period as fixed effects, with adjustment for screening sleep efficiency. […]"}, "healthy adults": {"tested_on": "healthy adults", "test": "Safety and tolerability (adverse events) in the study of Example 1", "assay_type": "in vivo, human", "conditions": "single dose 30 mg or 45 mg", "text": "Frequency, type, severity of adverse events; changes in vital sign assessments, clinical laboratory data, electrocardiogram (ECG) parameters, suicidality assessment via the Columbia Suicide Severity Rating Scale (C-SSRS), sleepiness assessment via Karolinska Sleepiness Scale (KSS), and psychomotor performance assessment via Digit Symbol Substitution Test (DSST)\nThe safety and tolerability of Compound 1 Capsules will be evaluated by frequency, type, and severity of adverse events; mean changes from baseline in clinical laboratory measures, vital signs, ECGs, suicidal ideation using the C-SSRS, sleepiness using the KSS, and psychomotor performance using the DSST.\nAdverse events will be classified by type, incidence, severity, and causality. The overall incidence of adverse events will be summarized by Medical Dictionary for Regulatory Activities (MedDRA) system organ class and preferred term. Data for vital signs, clinical laboratory measurements, ECG, and concomitant medication usage will also be summarized. Suicidality data collected using the C-SSRS at baseline and at each visit during the active Treatment Period will be listed for all subjects. The C-SSRS listings will include behavior type and/or category for suicidal ideation and suicidal behavior of the C-SSRS. Out-of-range safety endpoints may be categorized as low or high, where applicable. […]"}}, "note": "Marks after values point to notes of the source that are not given here.", "data": [{"molecule": "C[C@@]1(O)CC[C@H]2[C@H](CC[C@@H]3[C@@H]2CC[C@]2(C)[C@@H](C(=O)Cn4cc(C#N)cn4)CC[C@@H]32)C1", "note": "[Compound 1]", "values": [{"measurement": "Latency to persistent sleep (LPS) (min), Median Difference from Placebo", "setting": "[1]; 30 mg", "value": -1.50, "unit": "min"}, {"measurement": "Mean Duration of Awakenings (mDURAW) (min), Median Difference from Placebo", "setting": "[1]; 30 mg", "value": "−3.43** min"}, {"measurement": "Number of Awakenings (NAW), Median Difference from Placebo", "setting": "[1]; 30 mg", "value": "−1.00"}, {"measurement": "REM Sleep", "setting": "[1]; 30 mg", "value": 50.15, "unit": "min"}, {"measurement": "Sleep Efficiency (SE) (%), Median Difference from Placebo", "setting": "[1]; 30 mg", "value": "11.35* %"}, {"measurement": "Stage N1", "setting": "[1]; 30 mg", "value": 20.11, "unit": "min"}, {"measurement": "Stage N2", "setting": "[1]; 30 mg", "value": 258.16, "unit": "min"}, {"measurement": "Stage N3 (SWS)", "setting": "[1]; 30 mg", "value": 68.38, "unit": "min"}, {"measurement": "Subjective Sleep Latency (sSL) (min) Median (min, max)", "setting": "[1]; 30 mg", "value": "15 (2, 240) min"}, {"measurement": "Subjective TST (sTST) (min) Median (min, max)", "setting": "[1]; 30 mg", "value": "450.0 (40, 555) min"}, {"measurement": "Subjective WASO (sWASO) (min) Median (min, max)", "setting": "[1]; 30 mg", "value": "10.0 (0, 120) min"}, {"measurement": "Total sleep time (TST) (min), Median Difference from Placebo", "setting": "[1]; 30 mg", "value": "54.50* min"}, {"measurement": "Wakefulness after sleep onset (WASO (min), Median Difference from Placebo)", "setting": "[1]; 30 mg", "value": "−22.00* min"}, {"measurement": "effect on REM sleep", "setting": "[1]; 30 mg and 45 mg", "value": "did not disrupt REM sleep"}, {"measurement": "LPS (min), Median", "setting": "[1]; 30 mg single evening dose", "value": 13.25, "unit": "min"}, {"measurement": "NAW, Median", "setting": "[1]; 30 mg single evening dose", "value": 8.00}, {"measurement": "SE (%) (sleep efficiency), Median", "setting": "[1]; 30 mg single evening dose", "value": 84.64, "unit": "%"}, {"measurement": "TST (min), Median", "setting": "[1]; 30 mg single evening dose", "value": 406.25, "unit": "min"}, {"measurement": "WASO (min), Median", "setting": "[1]; 30 mg single evening dose", "value": 55.00, "unit": "min"}, {"measurement": "mDURAW (min), Median", "setting": "[1]; 30 mg single evening dose", "value": 4.23, "unit": "min"}, {"measurement": "decrease in median duration of awakenings from baseline", "setting": "[1]; 30 mg", "value": 2.629}, {"measurement": "TST median change (increase) from baseline", "setting": "[1]; 30 mg", "value": 85.25, "unit": "min"}, {"measurement": "Sleep efficiency (SE) increase from baseline (median)", "setting": "[1]; 30 mg", "value": 17.761, "unit": "%"}, {"measurement": "WASO median change from baseline", "setting": "[1]; 30 mg", "value": -74.75, "unit": "min"}, {"measurement": "LPS decrease from median baseline", "setting": "[1]; 30 mg, median baseline 28.50", "value": 13.25, "unit": "min"}, {"measurement": "Subjective Sleep Quality (sSQ) Median (min, max)", "setting": "[1]; 30 mg", "value": "8.0 (5, 10)"}, {"measurement": "Latency to persistent sleep (LPS) (min), Median Difference from Placebo", "setting": "[1]; 45 mg", "value": -1.00, "unit": "min"}, {"measurement": "Mean Duration of Awakenings (mDURAW) (min), Median Difference from Placebo", "setting": "[1]; 45 mg", "value": "−1.50+ min"}, {"measurement": "Number of Awakenings (NAW), Median Difference from Placebo", "setting": "[1]; 45 mg", "value": "−2.00"}, {"measurement": "REM Sleep", "setting": "[1]; 45 mg", "value": 43.54, "unit": "min"}, {"measurement": "Sleep Efficiency (SE) (%), Median Difference from Placebo", "setting": "[1]; 45 mg", "value": "12.61* %"}, {"measurement": "Stage N1", "setting": "[1]; 45 mg", "value": 19.58, "unit": "min"}, {"measurement": "Stage N2", "setting": "[1]; 45 mg", "value": 266.79, "unit": "min"}, {"measurement": "Stage N3 (SWS)", "setting": "[1]; 45 mg", "value": 74.71, "unit": "min"}, {"measurement": "Subjective Sleep Latency (sSL) (min) Median (min, max)", "setting": "[1]; 45 mg", "value": "10 (1, 60) min"}, {"measurement": "Subjective TST (sTST) (min) Median (min, max)", "setting": "[1]; 45 mg", "value": "465.0 (0, 510) min"}, {"measurement": "Subjective WASO (sWASO) (min) Median (min, max)", "setting": "[1]; 45 mg", "value": "5.0 (0, 300) min"}, {"measurement": "Total sleep time (TST) (min), Median Difference from Placebo", "setting": "[1]; 45 mg", "value": "60.50* min"}, {"measurement": "Wakefulness after sleep onset (WASO (min), Median Difference from Placebo)", "setting": "[1]; 45 mg", "value": "−55.50* min"}, {"measurement": "LPS (min), Median", "setting": "[1]; 45 mg single evening dose", "value": 14.25, "unit": "min"}, {"measurement": "NAW, Median", "setting": "[1]; 45 mg single evening dose", "value": 7.00}, {"measurement": "SE (%) (sleep efficiency), Median", "setting": "[1]; 45 mg single evening dose", "value": 87.55, "unit": "%"}, {"measurement": "TST (min), Median", "setting": "[1]; 45 mg single evening dose", "value": 420.25, "unit": "min"}, {"measurement": "WASO (min), Median", "setting": "[1]; 45 mg single evening dose", "value": 42.50, "unit": "min"}, {"measurement": "mDURAW (min), Median", "setting": "[1]; 45 mg single evening dose", "value": 3.67, "unit": "min"}, {"measurement": "decrease in median duration of awakenings from baseline", "setting": "[1]; 45 mg", "value": 4.261}, {"measurement": "TST median change (increase) from baseline", "setting": "[1]; 45 mg", "value": 96.00, "unit": "min"}, {"measurement": "Sleep efficiency (SE) increase from baseline (median)", "setting": "[1]; 45 mg", "value": 20.000, "unit": "%"}, {"measurement": "WASO median change from baseline", "setting": "[1]; 45 mg", "value": -75.25, "unit": "min"}, {"measurement": "Subjective Sleep Quality (sSQ) Median (min, max)", "setting": "[1]; 45 mg", "value": "9.0 (6, 10)"}, {"measurement": "LPS decrease from baseline", "setting": "[1]; median baseline 28.50", "value": 14.50, "unit": "min"}, {"measurement": "impact on latency to persistent sleep (LPS)", "setting": "[1]; single dose capsule of 30 mg or 45 mg in the evening", "value": "did not impact"}, {"measurement": "intensity of adverse events", "setting": "healthy adults", "value": "mild"}, {"measurement": "serious or severe adverse events", "setting": "healthy adults", "value": "no serious or severe adverse events were observed"}]}]}
